Results from patent US6696441B1, “Inhibition of p53-induced stress response” (The Regents of the University of California, priority 2000, dated 2004).

How the values were obtained:
[1] = nmr time course of PFT-α in DMSO-d6; format: physicochemical; conditions: time course in DMSO-d6, proton nmr
[2] = tested on: malignant lymphocytes from two patients with chronic lymphocytic leukemia [CLL]; assay: Effect on B-CLL viability (PI exclusion by FACS, MTT); format: cell-based, human; conditions: 3 days culture; viable cells by PI FACS and MTT; concentrations up to 100 micromolar; FIG. 1
Text: (§1) The malignant lymphocytes from two patients with chronic lymphocytic leukemia [CLL] were isolated by ficoll-hypaque sedimentation and suspended at a density of 1 million cells per milliliter in RPMI 1640 medium supplemented with 10% fetal bovine serum. Two hundred microliter aliquots of cells were dispersed in the wells of culture plates containing the indicated final concentrations of either PFT-α (“PFT-open”) or IBT (PFT-closed). After 3 days culture, viable cells were enumerated by fluorescence-activated cell sorting [FACS] after staining with propidium iodide [PI]. Viable cells excluded the dye [open circles]. In addition, cell metabolism was assessed by the ability of the cells to […] the tetrazolium dye MTT [closed squares].

[3] = Cyclization of PFT-α to IBT in DMSO stock diluted with water, reversed phase HPLC at 25° C. over time; format: physicochemical
Protocol: (§2) The preparation of PFT-α was accomplished as shown in Scheme 1 by reacting 4-methyl-2-bromoacetophenone with 2-amino-4,5,6,7-tetrahydro-benzothiazole. Upon recrystallization of the PFT-α from isopropyl alcohol, it was noticed that PFT-α readily ring-closed completely to the imidazo[2,1-b]benzothiazole (IBT). Therefore, a subsequent investigation was undertaken to study the propensity of PFT-α to ring-close in protic solvents. […] Thus, PFT-α was dissolved in DMSO and water dilutions were made from this stock.

[4] = Ring closure of PFT-α in protic solvents at room temperature; format: physicochemical
Protocol: as §2

mice = conditions: cited from earlier work
[5] = tested on: Chronic lymphocytic leukemia [CLL] cells; assay: Protection against spontaneous apoptosis and apoptosis induced by fludarabine (PI negative and DiOC6 high cells by FACS); format: cell-based, human; conditions: one micromolar, 3 days culture, FIG. 2; for effect on untreated CLL cells (spontaneous apoptosis): PI negative and DiOC6 high cells
Text: as §1
Chronic lymphocytic leukemia [CLL] cells were cultured for 3 days as described in Example 2. Some of the cultures were supplemented with one micromolar of PFT-open or PFT-closed, as indicated. In the experiment shown in the bottom panel of FIG. 2, some of the cultures also contained the cytotoxic adenine nucleoside analog fludarabine [abbreviated F-AraA]. Fludarabine is the first line treatment for CLL, and the toxicity of the drug is dependent upon the p53 pathway. To assess healthy, viable cells, staining was done with both PI, as indicated in Example 2, and with the mitochondrial dye DiOC6. Cells that were both PI negative and DIOC6 high were enumerated by FACS.

Compound	conversion of PFT-α to IBT [1]	CLL survival / toxicity [2]	% cyclized to IBT ([3]; Time 0 h)	% cyclized to IBT ([3]; Time 18 h)	% cyclized to IBT ([3]; Time 48 h)	propensity to ring-close in protic solvents [4]	protection from lethal genotoxic stress (mice; 6-8 Gy of gamma radiation)	promotion of tumor formation (mice)	effect on untreated CLL cells (spontaneous apoptosis) [5]	protective effect on CLL cells treated with F-AraA (fludarabine) ([5]; with F-AraA, compared with PFT-α)
Cc1ccc(C(=O)Cn2c3c(sc2=N)CCCC3)cc1 [PFT-α]	spontaneous conversion of PFT-α to IBT	dose-dependently reduced CLL survival	5%	28%	42%	begins cyclizing at room temperature immediately upon dissolution in protic solvents	protected mice from lethal genotoxic stress	without itself promoting the formation of tumors	nearly equivalent effects	–
Cc1ccc(-c2cn3c4c(sc3n2)CCCC4)cc1 [IBT]	–	non-toxic	–	–	–	–	–	–	nearly equivalent effects	less protective effects
